Experimental findings from BindingDB's records for doi:10.1016/j.bmcl.2004.04.026 (Morphochem, 2004) are described below.

Assay [1] addresses T1, Human immunodeficiency virus type 1 protease (Human immunodeficiency virus 1, UniProt Q72874). As to the kind of experiment: Inhibitory concentration against Protease.
The target of assay [2] is T1, Human immunodeficiency virus type 1 protease. Kind of assay: Evaluated for inhibition of Protease after resynthesis and purification.
Assay [3] has the same target. Kind of assay: Evaluated for inhibition of Protease after CLND/MS correction from the crude mixture.

In assay [1], `COc1cc(CC2C(=O)OC(C)(C(=O)NC(C)(C)C)C2=O)cc(OC)c1OC` (configuration not stated) [3-Hydroxy-2-methyl-5-oxo-4-(3,4,5-trimethoxy-benzyl)-2,5-dihydro-furan-2-carboxylic acid tert-butylamide] showed an IC50 of more than 1000 µM.
The same measure, in the same setting: in the case of `COc1cc(CC2C(=O)OC(C)(C(=O)NC3CC3)C2=O)cc(OC)c1OC` (configuration not stated) [3-Hydroxy-2-methyl-5-oxo-4-(3,4,5-trimethoxy-benzyl)-2,5-dihydro-furan-2-carboxylic acid cyclopropylamide] it was more than 1000 µM; in that of `CNC1C(=O)OC(CCc2ccccc2)(C(=O)NCC2CCCO2)C1=O` (configuration not stated) [3-Hydroxy-4-methylamino-5-oxo-2-phenethyl-2,5-dihydro-furan-2-carboxylic acid (tetrahydro-furan-2-ylmethyl)-amide], more than 1000 µM.
For the compound `C[C@@H](c1ccccc1)C1C(=O)O[C@](CCc2ccccc2)(C(=O)NCc2ccc(C(C)(C)C)cc2)C1=O` (some centres not stated), the results for the IC50 in assay [2], in assay [1] and in assay [3] were 4.6 µM, 84 µM and 1.2 µM, respectively.
In turn, `COc1cc(CC2C(=O)OC(CCc3ccccc3)(C(=O)NCC(C)(C)C)C2=O)cc(OC)c1OC` (configuration not stated) [3-Hydroxy-5-oxo-2-phenethyl-4-(3,4,5-trimethoxy-benzyl)-2,5-dihydro-furan-2-carboxylic acid (2,2-dimethyl-propyl)-amide] registered an IC50 in assay [1] of more than 1000 µM.

As usually defined, the IC50 is the midpoint of a concentration-inhibition curve.
